From PubChem BioAssay AID1053153 (Broad Institute, 2014)

Tested on: HepG2 + statin, PCSK9 mRNA qPCR, 24 h
Assay: statin-induced PCSK9 expression modulation – cell-based, HepG2, RT-PCR, atorvastatin or simvastatin, cherry-pick, mechanism study for Trib1 inducer project, late-stage follow-up (AID 1053153)

SMILES | fold change
CN1C(=O)c2cc(NC(=O)c3ccc(C(F)(F)F)cc3)ccc2OC[C@@H]2O[C@@H](CC(=O)NC3Cc4ccccc4C3)CC[C@@H]21 | 10
CN1C(=O)c2cc(NC(=O)c3ccc(C(F)(F)F)cc3)ccc2OC[C@@H]2O[C@H](CC(=O)NC3Cc4ccccc4C3)CC[C@@H]21 | 2
